Measurements published in US20230111310A1, “CARBOXYLIC ACID DERIVATIVE-SUBSTITUTED IMINO ARYL COMPOUND, PREPARATION METHOD THEREFOR, HERBICIDAL COMPOSITION AND USE THEREOF” (Qingdao Kingagroot Chemical Compound Co., Ltd., priority 2020, published 2023).

How the values were obtained:
Experiment in all cases: Weeding effect in post-emergence stage
Assay type in all cases: in vivo
Conditions in all cases: level of fresh weight growth control rate
Abutilon theophrasti = tested on: Abutilon theophrasti
In short: (§1)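 Read-out is growth control rate, counted 3 weeks post-spray and averaged over three repeats. Greenhouse plants at the 2-3 leaf stage received spray-tower application at 500, 250, 125, 60, 30, 15 or 7.5 g/ha, with methyl oleate EC (1.5 liter/ha) and Tween 80 added.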

Alopecurus japonicus = tested on: Alopecurus japonicus
In short: as §1

Digitaria sanguinalis = tested on: Digitaria sanguinalis
In short: as §1

Eleusine indica = tested on: Eleusine indica
In short: as §1

Setaria viridis = tested on: Setaria viridis
In short: as §1

Echinochloa crusgalli = tested on: Echinochloa crusgalli
In short: as §1

Row | Compound | Weeding effect in post-emergence stage, Abutilon theophrasti (Abutilon theophrasti; Dose 15 g/ha) | Weeding effect in post-emergence stage, Alopecurus japonicus (Alopecurus japonicus; Dose 15 g/ha) | Weeding effect in post-emergence stage, Digitaria sanguinalis (Digitaria sanguinalis; Dose 15 g/ha) | Weeding effect in post-emergence stage, Eleusine indica (Eleusine indica; Dose 15 g/ha) | Weeding effect in post-emergence stage, Setaria viridis (Setaria viridis; Dose 15 g/ha) | Weeding effect in post-emergence stage, Echinochloa crusgalli (Echinochloa crusgalli; Dose 15 g/ha) | further results
1 | CCOC(=O)OC(C)OC(=O)C(C)O/N=C/c1cc(-n2c(=O)cc(C(F)(F)F)n(C)c2=O)c(F)cc1Cl (stereo not drawn) [Compound 246] | 5 (Level 5: growth control rate is above 85%) | 5 (Level 5: growth control rate is above 85%) | 5 (Level 5: growth control rate is above 85%) | 5 (Level 5: growth control rate is above 85%) | 5 (Level 5: growth control rate is above 85%) | 5 (Level 5: growth control rate is above 85%) | –
2 | CC(C)=NOC(=O)C(C)O/N=C/c1cc(-n2c(=O)cc(C(F)(F)F)n(C)c2=O)c(F)cc1Cl (stereo not drawn) [Compound 248] | 5 (Level 5: growth control rate is above 85%) | 5 (Level 5: growth control rate is above 85%) | 5 (Level 5: growth control rate is above 85%) | 5 (Level 5: growth control rate is above 85%) | 5 (Level 5: growth control rate is above 85%) | 5 (Level 5: growth control rate is above 85%) | –
3 | CC/C(C)=N/OC(=O)C(C)O/N=C/c1cc(-n2c(=O)cc(C(F)(F)F)n(C)c2=O)c(F)cc1Cl (stereo not drawn) [Compound 249] | 5 (Level 5: growth control rate is above 85%) | 5 (Level 5: growth control rate is above 85%) | 5 (Level 5: growth control rate is above 85%) | 5 (Level 5: growth control rate is above 85%) | 5 (Level 5: growth control rate is above 85%) | 5 (Level 5: growth control rate is above 85%) | –
4 | C/C(=N\OC(=O)C(C)O/N=C/c1cc(-n2c(=O)cc(C(F)(F)F)n(C)c2=O)c(F)cc1Cl)C(C)C (stereo not drawn) [Compound 250] | 5 (Level 5: growth control rate is above 85%) | 5 (Level 5: growth control rate is above 85%) | 5 (Level 5: growth control rate is above 85%) | 5 (Level 5: growth control rate is above 85%) | 5 (Level 5: growth control rate is above 85%) | 5 (Level 5: growth control rate is above 85%) | –
5 | CCC(CC)=NOC(=O)C(C)O/N=C/c1cc(-n2c(=O)cc(C(F)(F)F)n(C)c2=O)c(F)cc1Cl (stereo not drawn) [Compound 251] | 5 (Level 5: growth control rate is above 85%) | 5 (Level 5: growth control rate is above 85%) | 5 (Level 5: growth control rate is above 85%) | 5 (Level 5: growth control rate is above 85%) | 5 (Level 5: growth control rate is above 85%) | 5 (Level 5: growth control rate is above 85%) | –
6 | CCO/C(C)=N/OC(=O)C(C)O/N=C/c1cc(-n2c(=O)cc(C(F)(F)F)n(C)c2=O)c(F)cc1Cl (stereo not drawn) [Compound 252] | 5 (Level 5: growth control rate is above 85%) | 5 (Level 5: growth control rate is above 85%) | 5 (Level 5: growth control rate is above 85%) | 5 (Level 5: growth control rate is above 85%) | 5 (Level 5: growth control rate is above 85%) | 5 (Level 5: growth control rate is above 85%) | –
7 | COC/C(C)=N/OC(=O)C(C)O/N=C/c1cc(-n2c(=O)cc(C(F)(F)F)n(C)c2=O)c(F)cc1Cl (stereo not drawn) [Compound 253] | 5 (Level 5: growth control rate is above 85%) | 5 (Level 5: growth control rate is above 85%) | 5 (Level 5: growth control rate is above 85%) | 5 (Level 5: growth control rate is above 85%) | 5 (Level 5: growth control rate is above 85%) | 5 (Level 5: growth control rate is above 85%) | –
8 | CCOC(=O)/C(C)=N/OC(=O)C(C)O/N=C/c1cc(-n2c(=O)cc(C(F)(F)F)n(C)c2=O)c(F)cc1Cl (stereo not drawn) [Compound 254] | 5 (Level 5: growth control rate is above 85%) | 5 (Level 5: growth control rate is above 85%) | 5 (Level 5: growth control rate is above 85%) | 5 (Level 5: growth control rate is above 85%) | 5 (Level 5: growth control rate is above 85%) | 5 (Level 5: growth control rate is above 85%) | –
9 | CC(O/N=C/c1cc(-n2c(=O)cc(C(F)(F)F)n(C)c2=O)c(F)cc1Cl)C(=O)O/N=C/c1ccccc1 (stereo not drawn) [Compound 255] | – | – | – | – | – | – | Weeding effect in post-emergence stage, Abutilon theophrasti (Abutilon theophrasti; Dose 30 g/ha): 5 (Level 5: growth control rate is above 85%); Weeding effect in post-emergence stage, Alopecurus japonicus (Alopecurus japonicus; Dose 30 g/ha): 5 (Level 5: growth control rate is above 85%); Weeding effect in post-emergence stage, Digitaria sanguinalis (Digitaria sanguinalis; Dose 30 g/ha): 5 (Level 5: growth control rate is above 85%); Weeding effect in post-emergence stage, Eleusine indica (Eleusine indica; Dose 30 g/ha): 5 (Level 5: growth control rate is above 85%); Weeding effect in post-emergence stage, Setaria viridis (Setaria viridis; Dose 30 g/ha): 5 (Level 5: growth control rate is above 85%); Weeding effect in post-emergence stage, Echinochloa crusgalli (Echinochloa crusgalli; Dose 30 g/ha): 5 (Level 5: growth control rate is above 85%)
10 | CC(O/N=C/c1cc(-n2c(=O)cc(C(F)(F)F)n(C)c2=O)c(F)cc1Cl)C(=O)ON=C1CCCC1 (stereo not drawn) [Compound 258] | 5 (Level 5: growth control rate is above 85%) | 4 (Level 4: growth control rate is greater than or equal to 60% and less than 85%) | 5 (Level 5: growth control rate is above 85%) | 5 (Level 5: growth control rate is above 85%) | 5 (Level 5: growth control rate is above 85%) | 5 (Level 5: growth control rate is above 85%) | –
11 | CC(C)=NOCCOC(=O)C(C)O/N=C/c1cc(-n2c(=O)cc(C(F)(F)F)n(C)c2=O)c(F)cc1Cl (stereo not drawn) [Compound 259] | – | – | – | – | – | – | Weeding effect in post-emergence stage, Abutilon theophrasti (Abutilon theophrasti; Dose 30 g/ha): 5 (Level 5: growth control rate is above 85%); Weeding effect in post-emergence stage, Alopecurus japonicus (Alopecurus japonicus; Dose 30 g/ha): 5 (Level 5: growth control rate is above 85%); Weeding effect in post-emergence stage, Digitaria sanguinalis (Digitaria sanguinalis; Dose 30 g/ha): 5 (Level 5: growth control rate is above 85%); Weeding effect in post-emergence stage, Eleusine indica (Eleusine indica; Dose 30 g/ha): 5 (Level 5: growth control rate is above 85%); Weeding effect in post-emergence stage, Setaria viridis (Setaria viridis; Dose 30 g/ha): 5 (Level 5: growth control rate is above 85%); Weeding effect in post-emergence stage, Echinochloa crusgalli (Echinochloa crusgalli; Dose 30 g/ha): 5 (Level 5: growth control rate is above 85%)
12 | CC(O/N=C/c1cc(-n2c(=O)cc(C(F)(F)F)n(C)c2=O)c(F)cc1Cl)C(=O)Oc1ccccc1 (stereo not drawn) [Compound 262] | 5 (Level 5: growth control rate is above 85%) | 5 (Level 5: growth control rate is above 85%) | 5 (Level 5: growth control rate is above 85%) | 5 (Level 5: growth control rate is above 85%) | 5 (Level 5: growth control rate is above 85%) | 5 (Level 5: growth control rate is above 85%) | –
13 | CC(O/N=C/c1cc(-n2c(=O)cc(C(F)(F)F)n(C)c2=O)c(F)cc1Cl)C(=O)ON1C(=O)CCC1=O (stereo not drawn) [Compound 263] | – | – | – | – | – | – | Weeding effect in post-emergence stage, Abutilon theophrasti (Abutilon theophrasti; Dose 60 g/ha): 5 (Level 5: growth control rate is above 85%); Weeding effect in post-emergence stage, Alopecurus japonicus (Alopecurus japonicus; Dose 60 g/ha): 5 (Level 5: growth control rate is above 85%); Weeding effect in post-emergence stage, Digitaria sanguinalis (Digitaria sanguinalis; Dose 60 g/ha): 5 (Level 5: growth control rate is above 85%); Weeding effect in post-emergence stage, Eleusine indica (Eleusine indica; Dose 60 g/ha): 5 (Level 5: growth control rate is above 85%); Weeding effect in post-emergence stage, Setaria viridis (Setaria viridis; Dose 60 g/ha): 5 (Level 5: growth control rate is above 85%); Weeding effect in post-emergence stage, Echinochloa crusgalli (Echinochloa crusgalli; Dose 60 g/ha): 5 (Level 5: growth control rate is above 85%)
